PMC4767141, “Discovery of Potent, Orally Bioavailable, Small-Molecule Inhibitors of WNT Signaling from a Cell-Based Pathway Screen” (Journal of Medicinal Chemistry, 2015)
Where two headings read alike, the source gives them in different places.

Columns and labels:
[1] = biological target: T1, EPHB4 (Homo sapiens, UniProt P54760); test: Millipore kinase panel; type: biochemical; settings: read-out: % Control
T1 construct: purchased Millipore KinaseProfiler (kinases); Cerep (receptors and ion channels)

[2] = biological target: T2, FES (Homo sapiens, UniProt P07332); test: Millipore kinase panel; type: biochemical; settings: read-out: % Control
T2 construct: purchased Millipore KinaseProfiler (kinases); Cerep (receptors and ion channels)
T2 sequence (P07332 whole entry): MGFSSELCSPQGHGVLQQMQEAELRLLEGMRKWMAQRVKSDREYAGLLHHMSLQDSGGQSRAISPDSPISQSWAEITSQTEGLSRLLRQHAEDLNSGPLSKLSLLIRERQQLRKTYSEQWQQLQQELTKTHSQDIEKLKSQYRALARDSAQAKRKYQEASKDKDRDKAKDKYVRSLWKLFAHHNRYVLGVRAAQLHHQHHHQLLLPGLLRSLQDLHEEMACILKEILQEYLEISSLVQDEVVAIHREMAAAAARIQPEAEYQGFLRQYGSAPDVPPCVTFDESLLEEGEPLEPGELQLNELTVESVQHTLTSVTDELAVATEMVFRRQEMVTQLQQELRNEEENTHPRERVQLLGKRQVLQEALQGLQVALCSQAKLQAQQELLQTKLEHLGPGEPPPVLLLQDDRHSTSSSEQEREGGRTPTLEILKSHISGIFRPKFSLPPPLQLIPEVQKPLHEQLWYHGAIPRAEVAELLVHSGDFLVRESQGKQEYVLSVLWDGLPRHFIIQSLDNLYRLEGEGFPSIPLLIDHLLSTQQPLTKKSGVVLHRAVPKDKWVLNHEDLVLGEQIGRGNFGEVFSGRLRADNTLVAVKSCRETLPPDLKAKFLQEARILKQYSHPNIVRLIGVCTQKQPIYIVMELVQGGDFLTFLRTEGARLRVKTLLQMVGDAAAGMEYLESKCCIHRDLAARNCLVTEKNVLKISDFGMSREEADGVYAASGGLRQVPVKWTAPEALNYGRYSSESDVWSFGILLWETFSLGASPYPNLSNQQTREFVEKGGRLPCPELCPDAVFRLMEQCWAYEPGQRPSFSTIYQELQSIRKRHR

[3] = biological target: T3, MST2 (Homo sapiens, UniProt Q13188); test: Millipore kinase panel; type: biochemical; settings: read-out: % Control
T3 construct: purchased Millipore KinaseProfiler (kinases); Cerep (receptors and ion channels)

[4] = biological target: T4, ULK3 (Homo sapiens, UniProt Q6PHR2); test: Millipore kinase panel; type: biochemical; settings: read-out: % Control
T4 construct: purchased Millipore KinaseProfiler (kinases); Cerep (receptors and ion channels)
T4 sequence (Q6PHR2 whole entry): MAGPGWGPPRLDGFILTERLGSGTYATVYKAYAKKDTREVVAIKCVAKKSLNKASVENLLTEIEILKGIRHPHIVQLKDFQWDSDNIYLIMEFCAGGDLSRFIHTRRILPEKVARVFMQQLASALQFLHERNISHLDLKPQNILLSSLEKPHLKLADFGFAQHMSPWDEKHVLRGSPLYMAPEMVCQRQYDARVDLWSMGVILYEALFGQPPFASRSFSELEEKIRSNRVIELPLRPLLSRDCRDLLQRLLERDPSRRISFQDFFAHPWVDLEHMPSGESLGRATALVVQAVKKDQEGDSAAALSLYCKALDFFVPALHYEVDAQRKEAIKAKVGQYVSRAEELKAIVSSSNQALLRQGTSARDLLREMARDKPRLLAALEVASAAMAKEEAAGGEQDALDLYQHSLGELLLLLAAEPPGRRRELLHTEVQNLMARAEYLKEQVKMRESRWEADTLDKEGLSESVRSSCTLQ

[5] = Clint determination; type: in vitro ADME; settings: mouse, microsomes, pH 7.4, mouse microsomes, read-out: Clint (μL/min/mg) Mouse
[6] = biological target: T5, PAK3 (Homo sapiens, UniProt O75914); test: Millipore kinase panel; type: biochemical; settings: read-out: % Control
T5 construct: purchased Millipore KinaseProfiler (kinases); Cerep (receptors and ion channels)

[7] = biological target: T6, BMX (Homo sapiens, UniProt P51813); test: Millipore kinase panel; type: biochemical; settings: read-out: % Control
T6 construct: purchased Millipore KinaseProfiler (kinases); Cerep (receptors and ion channels)
T6 sequence (P51813 whole entry): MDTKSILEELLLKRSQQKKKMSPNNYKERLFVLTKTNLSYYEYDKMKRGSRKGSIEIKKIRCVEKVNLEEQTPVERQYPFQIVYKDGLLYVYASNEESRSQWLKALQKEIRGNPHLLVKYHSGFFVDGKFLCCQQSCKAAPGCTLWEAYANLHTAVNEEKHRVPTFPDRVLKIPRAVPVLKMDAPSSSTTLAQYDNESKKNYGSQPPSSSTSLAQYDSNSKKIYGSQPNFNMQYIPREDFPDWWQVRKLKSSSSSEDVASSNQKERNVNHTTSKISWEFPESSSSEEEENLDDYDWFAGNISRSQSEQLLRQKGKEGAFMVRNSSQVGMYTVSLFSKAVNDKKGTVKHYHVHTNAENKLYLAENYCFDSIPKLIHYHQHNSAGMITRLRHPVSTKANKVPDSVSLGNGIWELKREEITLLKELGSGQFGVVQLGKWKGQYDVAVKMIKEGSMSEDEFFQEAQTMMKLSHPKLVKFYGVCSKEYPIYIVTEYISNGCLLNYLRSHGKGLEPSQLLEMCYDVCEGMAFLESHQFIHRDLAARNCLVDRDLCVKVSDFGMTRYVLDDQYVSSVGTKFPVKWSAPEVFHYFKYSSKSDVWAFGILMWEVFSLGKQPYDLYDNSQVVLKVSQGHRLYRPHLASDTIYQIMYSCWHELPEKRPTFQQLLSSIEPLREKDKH

[8] = Clint determination; type: in vitro ADME; settings: human, microsomes, pH 7.4, human microsomes, read-out: Clint (μL/min/mg) Human
[9] = biological target: T7, PKCZETA (Homo sapiens, UniProt Q05513); test: Millipore kinase panel; type: biochemical; settings: read-out: % Control
T7 construct: purchased Millipore KinaseProfiler (kinases); Cerep (receptors and ion channels)

[10] = biological target: T8, RIPK2 (Homo sapiens, UniProt O43353); test: Millipore kinase panel; type: biochemical; settings: read-out: % Control
T8 construct: purchased Millipore KinaseProfiler (kinases); Cerep (receptors and ion channels)

[11] = system: PI3 KINASE (P110A/P85A); test: Millipore kinase panel; type: biochemical; settings: 1 μM, ATP at Km
[12] = biological target: T9, PKA (Homo sapiens, UniProt P17612); test: Millipore kinase panel; type: biochemical; settings: read-out: % Control
T9 construct: purchased Millipore KinaseProfiler (kinases); Cerep (receptors and ion channels)

[13] = system: sst (non-selective); test: CEREP binding panel; settings: 10 μM, agonist radioligand
[14] = biological target: T10, GRK7 (Homo sapiens, UniProt Q8WTQ7); test: Millipore kinase panel; type: biochemical; settings: read-out: % Control
T10 construct: purchased Millipore KinaseProfiler (kinases); Cerep (receptors and ion channels)

[15] = biological target: T11, LYN (Homo sapiens, UniProt P07948); test: Millipore kinase panel; type: biochemical; settings: ATP at Km, read-out: % Control
T11 construct: purchased Millipore KinaseProfiler (kinases); Cerep (receptors and ion channels)

[16] = biological target: T12, SGK3 (Homo sapiens, UniProt Q96BR1); test: Millipore kinase panel; type: biochemical; settings: read-out: % Control
T12 construct: purchased Millipore KinaseProfiler (kinases); Cerep (receptors and ion channels)

[17] = biological target: T13, NLK (Homo sapiens, UniProt Q9UBE8); test: Millipore kinase panel; type: biochemical; settings: read-out: % Control
T13 construct: purchased Millipore KinaseProfiler (kinases); Cerep (receptors and ion channels)

[18] = biological target: T14, MARK1 (Homo sapiens, UniProt Q9P0L2); test: Millipore kinase panel; type: biochemical; settings: read-out: % Control
T14 construct: purchased Millipore KinaseProfiler (kinases); Cerep (receptors and ion channels)
T14 sequence (Q9P0L2 whole entry): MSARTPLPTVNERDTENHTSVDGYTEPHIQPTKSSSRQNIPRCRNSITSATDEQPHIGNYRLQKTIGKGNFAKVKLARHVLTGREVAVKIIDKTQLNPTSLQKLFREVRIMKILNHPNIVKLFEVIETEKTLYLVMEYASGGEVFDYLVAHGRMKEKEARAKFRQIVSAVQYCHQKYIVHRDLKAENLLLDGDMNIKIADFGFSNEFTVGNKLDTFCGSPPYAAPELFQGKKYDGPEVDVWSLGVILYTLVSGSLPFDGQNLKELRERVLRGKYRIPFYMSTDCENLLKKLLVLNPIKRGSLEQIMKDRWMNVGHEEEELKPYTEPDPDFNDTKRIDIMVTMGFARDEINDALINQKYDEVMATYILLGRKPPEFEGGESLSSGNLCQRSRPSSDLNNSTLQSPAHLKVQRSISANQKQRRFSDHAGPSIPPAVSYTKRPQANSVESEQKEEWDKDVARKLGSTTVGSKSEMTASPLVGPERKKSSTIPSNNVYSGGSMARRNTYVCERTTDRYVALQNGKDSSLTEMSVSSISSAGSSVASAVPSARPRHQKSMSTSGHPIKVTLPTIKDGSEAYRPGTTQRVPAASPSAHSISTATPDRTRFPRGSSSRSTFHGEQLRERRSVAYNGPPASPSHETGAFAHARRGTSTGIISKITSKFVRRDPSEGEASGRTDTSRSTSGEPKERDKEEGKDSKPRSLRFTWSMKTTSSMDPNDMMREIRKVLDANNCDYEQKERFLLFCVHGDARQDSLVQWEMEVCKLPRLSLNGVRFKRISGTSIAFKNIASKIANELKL

[19] = Caco-2 Papp determination; type: in vitro ADME, human; settings: for Papp at 2 h, 1 μM: human, Caco-2, pH 7.4
[20] = system: Cl- channel (GABA-gated); test: CEREP binding panel; settings: 10 μM, antagonist radioligand
[21] = biological target: T15, CXCR2 (IL-8B) (h) (Homo sapiens, UniProt P25025); test: CEREP binding panel; settings: agonist radioligand, read-out: % Inhibition of Control Specific Binding
T15 construct: purchased Millipore KinaseProfiler (kinases); Cerep (receptors and ion channels)
T15 sequence (P25025 whole entry): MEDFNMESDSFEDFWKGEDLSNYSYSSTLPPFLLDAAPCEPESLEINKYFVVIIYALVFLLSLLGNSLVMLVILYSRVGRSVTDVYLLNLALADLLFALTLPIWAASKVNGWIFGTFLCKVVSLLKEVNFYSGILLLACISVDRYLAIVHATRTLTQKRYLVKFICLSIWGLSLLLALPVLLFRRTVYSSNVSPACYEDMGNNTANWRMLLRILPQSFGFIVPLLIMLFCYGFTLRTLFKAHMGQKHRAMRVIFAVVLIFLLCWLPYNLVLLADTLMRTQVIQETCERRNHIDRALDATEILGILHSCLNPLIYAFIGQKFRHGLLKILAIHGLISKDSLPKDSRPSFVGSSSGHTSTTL

[22] = biological target: T16, PKCALPHA (Homo sapiens, UniProt P17252); test: Millipore kinase panel; type: biochemical; settings: read-out: % Control
T16 construct: purchased Millipore KinaseProfiler (kinases); Cerep (receptors and ion channels)

[23] = biological target: T17, FMS (Homo sapiens, UniProt P07333); test: Millipore kinase panel; type: biochemical; settings: read-out: % Control
T17 construct: purchased Millipore KinaseProfiler (kinases); Cerep (receptors and ion channels)
T17 sequence (P07333 20-972): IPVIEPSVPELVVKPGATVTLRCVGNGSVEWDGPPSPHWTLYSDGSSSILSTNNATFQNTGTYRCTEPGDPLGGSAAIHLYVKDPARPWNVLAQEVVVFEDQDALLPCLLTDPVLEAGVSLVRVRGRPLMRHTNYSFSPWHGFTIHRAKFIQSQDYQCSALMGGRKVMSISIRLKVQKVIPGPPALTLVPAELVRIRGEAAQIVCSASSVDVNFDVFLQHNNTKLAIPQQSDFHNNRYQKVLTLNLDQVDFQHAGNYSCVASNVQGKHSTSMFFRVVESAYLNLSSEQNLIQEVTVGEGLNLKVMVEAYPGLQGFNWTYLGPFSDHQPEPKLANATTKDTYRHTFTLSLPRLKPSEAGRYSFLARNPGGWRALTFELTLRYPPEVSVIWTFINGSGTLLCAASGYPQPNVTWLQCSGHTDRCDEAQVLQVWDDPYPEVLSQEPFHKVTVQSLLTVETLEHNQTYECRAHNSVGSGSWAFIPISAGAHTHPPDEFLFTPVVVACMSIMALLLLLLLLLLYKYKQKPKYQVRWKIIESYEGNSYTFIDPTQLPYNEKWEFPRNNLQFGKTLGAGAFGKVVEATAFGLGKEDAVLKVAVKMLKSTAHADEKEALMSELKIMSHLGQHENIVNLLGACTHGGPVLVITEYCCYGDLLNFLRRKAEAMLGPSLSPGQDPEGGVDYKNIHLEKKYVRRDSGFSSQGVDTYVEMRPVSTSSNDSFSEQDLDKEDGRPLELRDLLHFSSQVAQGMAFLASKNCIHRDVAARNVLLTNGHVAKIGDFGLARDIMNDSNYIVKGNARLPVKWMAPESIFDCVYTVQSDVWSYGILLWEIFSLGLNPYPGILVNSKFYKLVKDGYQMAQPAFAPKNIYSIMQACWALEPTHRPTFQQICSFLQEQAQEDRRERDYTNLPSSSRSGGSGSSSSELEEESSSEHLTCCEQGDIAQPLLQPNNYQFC

[24] = biological target: T18, SRPK2 (Homo sapiens, UniProt P78362); test: Millipore kinase panel; type: biochemical; settings: read-out: % Control
T18 construct: purchased Millipore KinaseProfiler (kinases); Cerep (receptors and ion channels)

[25] = biological target: T19, TIE2(R849W) (Homo sapiens, UniProt Q02763, R849W); test: Millipore kinase panel; type: biochemical; settings: read-out: % Control
T19 construct: purchased Millipore KinaseProfiler (kinases); Cerep (receptors and ion channels)

[26] = biological target: T20, ABL(Y253F) (Homo sapiens, UniProt P00519, Y253F); test: Millipore kinase panel; type: biochemical; settings: read-out: % Control
T20 construct: purchased Millipore KinaseProfiler (kinases); Cerep (receptors and ion channels)

[27] = biological target: T21, PKBGAMMA (Homo sapiens, UniProt Q9Y243); test: Millipore kinase panel; type: biochemical; settings: read-out: % Control
T21 construct: purchased Millipore KinaseProfiler (kinases); Cerep (receptors and ion channels)

[28] = biological target: T22, AURKA (Homo sapiens, UniProt O14965); test: Millipore kinase panel; type: biochemical; settings: read-out: % Control
T22 construct: purchased Millipore KinaseProfiler (kinases); Cerep (receptors and ion channels)

[29] = biological target: T23, EGFR(T790M,L858R) (Homo sapiens, UniProt P00533, L858R/T790M); test: Millipore kinase panel; type: biochemical; settings: read-out: % Control
T23 construct: purchased Millipore KinaseProfiler (kinases); Cerep (receptors and ion channels)

[30] = biological target: T24, ABL (M351T) (Homo sapiens, UniProt P00519, M351T); test: Millipore kinase panel; type: biochemical; settings: read-out: % Control
T24 construct: purchased Millipore KinaseProfiler (kinases); Cerep (receptors and ion channels)

[31] = biological target: T25, DDR2 (Homo sapiens, UniProt Q16832); test: Millipore kinase panel; type: biochemical; settings: read-out: % Control
T25 construct: purchased Millipore KinaseProfiler (kinases); Cerep (receptors and ion channels)

[32] = biological target: T26, PI3K GAMMA (Homo sapiens, UniProt P48736); test: Millipore kinase panel; type: biochemical; settings: read-out: % Control
T26 construct: purchased Millipore KinaseProfiler (kinases); Cerep (receptors and ion channels)

[33] = biological target: T27, MTOR/FKBP12 (Homo sapiens, UniProt P42345); test: Millipore kinase panel; type: biochemical; settings: read-out: % Control
T27 construct: purchased Millipore KinaseProfiler (kinases); Cerep (receptors and ion channels)

[34] = biological target: T28, TIE2(Y897S) (Homo sapiens, UniProt Q02763, Y897S); test: Millipore kinase panel; type: biochemical; settings: read-out: % Control
T28 construct: purchased Millipore KinaseProfiler (kinases); Cerep (receptors and ion channels)

[35] = biological target: T29, PKCGAMMA (Homo sapiens, UniProt P05129); test: Millipore kinase panel; type: biochemical; settings: read-out: % Control
T29 construct: purchased Millipore KinaseProfiler (kinases); Cerep (receptors and ion channels)

[36] = biological target: T30, V1a (h) (Homo sapiens, UniProt P37288); test: CEREP binding panel; settings: agonist radioligand, read-out: % Inhibition of Control Specific Binding
T30 construct: purchased Millipore KinaseProfiler (kinases); Cerep (receptors and ion channels)

[37] = biological target: T31, PDGFRALPHA(D842V) (Homo sapiens, UniProt P16234, D842V); test: Millipore kinase panel; type: biochemical; settings: read-out: % Control
T31 construct: purchased Millipore KinaseProfiler (kinases); Cerep (receptors and ion channels)

[38] = biological target: T32, CKIT(D816V) (Homo sapiens, UniProt P10721, D816V); test: Millipore kinase panel; type: biochemical; settings: read-out: % Control
T32 construct: purchased Millipore KinaseProfiler (kinases); Cerep (receptors and ion channels)

[39] = biological target: hERG (Homo sapiens, UniProt Q12809); test: hERG inhibition
[40] = biological target: CYP450 2D6 (Homo sapiens, UniProt P10635); test: CYP450 inhibition; type: in vitro ADME
[41] = biological target: T33, PI3 KINASE (H1047R/P85A) (Homo sapiens, UniProt P42336, H1047R); test: Millipore kinase panel; type: biochemical; settings: read-out: % Control
T33 construct: purchased Millipore KinaseProfiler (kinases); Cerep (receptors and ion channels)

SMILES	remaining activity at 1 µM [1] [%]	remaining activity at 1 µM [2] [%]	remaining activity at 1 µM [3] [%]	remaining activity at 1 µM [4] [%]	remaining activity at 1 µM [7] [%]	remaining activity at 1 µM [9] [%]	remaining activity at 1 µM [10] [%]	% Control [11] [%]	remaining activity at 1 µM [12] [%]	% Inhibition of Control Specific Binding [13] [%]	remaining activity at 1 µM [14] [%]	remaining activity at 1 µM [16] [%]	remaining activity at 1 µM [17] [%]	remaining activity at 1 µM [18] [%]	Papp at 2 h, 1 μM [19] [×10⁻⁶ cm/s]	inhibition at 10 µM [21] [%]	remaining activity at 1 µM [22] [%]	remaining activity at 1 µM [23] [%]	remaining activity at 1 µM [24] [%]	also measured
O=C1NCCC12CCN(c1c(Cl)cncc1-c1ccc(N3CCOCC3)cc1)CC2 [Compound 44, 8-(3-Chloro-5-(4-morpholin-4-ylphenyl)pyridin-4-yl)-2,8-diazaspiro[4.5]decan-1-one]	4	14	1	-1	-2	5	3	1	5	-16	-2	5	17	4	37	-2	-5	-39	10	microsomal CLint at 1 μM [5]: 290 µL/min/mg; remaining activity at 1 µM [6]: 17%; microsomal CLint at 1 μM [8]: 115 µL/min/mg; remaining activity at 1 µM [15]: 31%; Caco-2 efflux (efflux ratio, ER) [19]: no efflux; % Inhibition of Control Specific Binding [20]: 14%
Cn1cc(-c2ccc(-c3cncc(Cl)c3N3CCC4(CCNC4=O)CC3)cc2)cn1 [Compound 74, 8-(3-Chloro-5-(4-(1-methyl-1H-pyrazol-4-yl)phenyl)pyridin-4-yl)-2,8-diazaspiro[4.5]decan-1-one]	10	-14	4	-2	-2	-7	-6	-1	24	4	7	-9	0	2	24	-6	-5	-21	-10	remaining activity at 1 µM [25]: -6%; remaining activity at 1 µM [26]: -11%; remaining activity at 1 µM [27]: -5%; remaining activity at 1 µM [28]: 6%; remaining activity at 1 µM [29]: -4%; remaining activity at 1 µM [30]: 5%; remaining activity at 1 µM [31]: 5%; remaining activity at 1 µM [32]: 2%; remaining activity at 1 µM [33]: 11%; remaining activity at 1 µM [34]: 4%; remaining activity at 1 µM [35]: 2%; inhibition at 10 µM [36]: -7%; remaining activity at 1 µM [37]: -4%; remaining activity at 1 µM [38]: 7%; IC50 [39]: > 10 µM; IC50 [40]: > 20 µM; remaining activity at 1 µM [41]: -1%
